Data from paper PMC3649849 (Journal of the American Chemical Society, 2013).

Experiments:
[1] = I = 0.05 (KCl); cited from earlier work
L232A mutant TbbTIM = L232A mutant TbbTIM (Trypanosoma brucei brucei, UniProt P04789, L232A); assay: Competitive inhibition of TIM-catalyzed isomerization of GAP by phosphoglycolate; assay type: biochemical
I172A mutant TbbTIM = assay: as above; assay type: biochemical, Trypanosoma brucei brucei; settings: pH < 6
[2] = target: wildtype TbbTIM (triosephosphate isomerase) (Trypanosoma brucei brucei, UniProt P04789); assay: as above; assay type: biochemical; settings: relative to 14 kcal/mol estimated for GAP

In the case of `O=C(O)COP(=O)(O)O` [PGA, Phosphoglycolate], the “pKa for ionization of HI^2− to form I^3−” value [1] is listed as 6.5, the “fold increase in the affinity of the enzyme for I^3− from the L232A mutation” value (L232A mutant TbbTIM; pH 8.3, relative to wildtype) is listed as 20 fold and the Ki (L232A mutant TbbTIM; read-out: Ki for inhibition by PGA trianion I^3−, pH 8.3, 25 °C, I = 0.1 (NaCl)) is listed as 12 µM. The “fold lower affinity of the mutant compared with the wildtype enzyme for I^3−” value (I172A mutant TbbTIM) was 100 fold and the “fraction of the total intrinsic transition state binding energy for TIM expressed” value [2] was ~ 80%.
